According to ChEMBL document CHEMBL4808238, “Small Molecule Inhibitors of KRAS Mutant as a Therapeutic Strategy for the Treatment of Cancer” (ACS Med Chem Lett, 2021):

The compounds below were run against GTPase KRas (Homo sapiens, UniProt P01116, G12C) (assay: Inhibition of biotinylated KRAS G12C mutant (unknown origin) assessed as inhibition of SOS-catalyzed nucleotide exchange preincubated for 60 mins followed by addition of human recombinant SOS protein and unlabeled GTP and measured after 60 mins by TR-FRET analysis).
GTPase KRas, sequence (P01116 whole entry G12C): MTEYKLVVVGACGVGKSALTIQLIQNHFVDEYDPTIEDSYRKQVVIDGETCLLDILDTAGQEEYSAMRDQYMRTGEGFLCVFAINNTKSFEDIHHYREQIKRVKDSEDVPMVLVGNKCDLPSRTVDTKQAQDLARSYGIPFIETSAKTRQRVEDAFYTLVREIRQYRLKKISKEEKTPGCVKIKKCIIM
With C=C(F)C(=O)N1CCN(c2cc(C(=O)N[C@H](C)CN(C)C)nc3c2CCN(c2cccc4cccc(C)c24)C3)C[C@@H]1CC#N the IC50 was 8.3 nM. Work on C=CC(=O)N1CCN(c2cc(C(=O)N[C@@H]3CCC[C@H]3N(C)C)nc3c2CCN(c2cccc4cccc(C)c24)C3)C[C@@H]1CC#N yielded an IC50 of 1 nM. C=CC(=O)N1CCN(c2cc(C(=O)NC(C)CN3CCC(C)(O)C3)nc3c2CCN(c2cccc4cccc(C)c24)C3)C[C@@H]1CC#N (stereo in doubt; 76) showed an IC50 of 6.2 nM. C=CC(=O)N1CCN(c2cc(C(=O)NC3(CC)CCNC3)nc3c2CCN(c2cccc4cccc(C)c24)C3)C[C@@H]1CC#N (stereo partly specified) was tested, and the IC50 was 4.5 nM. C=CC(=O)N1CCN(c2cc(C(=O)NC3(C)CCCNC3)nc3c2CCN(c2cccc4cccc(C)c24)C3)C[C@@H]1CC#N (stereo partly specified) gave an IC50 of 5.4 nM. For C=CC(=O)N1CCN(c2cc(C(=O)NC[C@H]3CCCN3)nc3c2CCN(c2cccc4cccc(C)c24)C3)C[C@@H]1CC#N, the IC50 was 6.2 nM. C=CC(=O)N1CCN(c2cc(C(=O)N[C@H](C)CN3CC(C)(O)C3)nc3c2CCN(c2cccc4cccc(C)c24)C3)C[C@@H]1CC#N showed an IC50 of 2.2 nM. Compound C=CC(=O)N1CCN(c2cc(C(=O)N[C@H](C)CN(C)C)nc3c2CCN(c2c(Cl)c(C)cc4[nH]ncc24)C3)C[C@@H]1CC#N has an IC50 of 0.9 nM. With C=CC(=O)N1CCN(c2cc(C(=O)NC(C)CN3CCC(C)(O)C3)nc3c2CCN(c2cccc4cccc(C)c24)C3)C[C@@H]1CC#N (stereo in doubt; 75) the IC50 was 7.2 nM. With C=C(F)C(=O)N1CCN(c2cc(C(=O)NC(C)CN3CCC(C)(O)C3)nc3c2CCN(c2cccc4cccc(C)c24)C3)C[C@@H]1CC#N (stereo partly specified) the IC50 was 5 nM. C=CC(=O)N1CCN(c2cc(C(=O)NCC3CCCCN3)nc3c2CCN(c2cccc4cccc(C)c24)C3)C[C@@H]1CC#N (stereo partly specified) gave an IC50 of 8.3 nM.
